The target in one assay is T1, recombinant human Nav1.7 (Homo sapiens, UniProt Q15858).
T1 construct: expressed in transfected cells; host or cells: HEK293
Kind of assay: FRET-based membrane potential assay, Nav1.7. Conditions: HEK293 cells expressing recombinant human Nav1.7; veratridine + scorpion venom depolarization. The format is cell-based.

A further assay deals with T2, hERG channel (Kv11.1) (Homo sapiens, UniProt Q12809).
T2 construct: W. January (Wisconsin Alumni Research Foundation); host or cells: HEK-293
T2 sequence (Q12809 whole entry): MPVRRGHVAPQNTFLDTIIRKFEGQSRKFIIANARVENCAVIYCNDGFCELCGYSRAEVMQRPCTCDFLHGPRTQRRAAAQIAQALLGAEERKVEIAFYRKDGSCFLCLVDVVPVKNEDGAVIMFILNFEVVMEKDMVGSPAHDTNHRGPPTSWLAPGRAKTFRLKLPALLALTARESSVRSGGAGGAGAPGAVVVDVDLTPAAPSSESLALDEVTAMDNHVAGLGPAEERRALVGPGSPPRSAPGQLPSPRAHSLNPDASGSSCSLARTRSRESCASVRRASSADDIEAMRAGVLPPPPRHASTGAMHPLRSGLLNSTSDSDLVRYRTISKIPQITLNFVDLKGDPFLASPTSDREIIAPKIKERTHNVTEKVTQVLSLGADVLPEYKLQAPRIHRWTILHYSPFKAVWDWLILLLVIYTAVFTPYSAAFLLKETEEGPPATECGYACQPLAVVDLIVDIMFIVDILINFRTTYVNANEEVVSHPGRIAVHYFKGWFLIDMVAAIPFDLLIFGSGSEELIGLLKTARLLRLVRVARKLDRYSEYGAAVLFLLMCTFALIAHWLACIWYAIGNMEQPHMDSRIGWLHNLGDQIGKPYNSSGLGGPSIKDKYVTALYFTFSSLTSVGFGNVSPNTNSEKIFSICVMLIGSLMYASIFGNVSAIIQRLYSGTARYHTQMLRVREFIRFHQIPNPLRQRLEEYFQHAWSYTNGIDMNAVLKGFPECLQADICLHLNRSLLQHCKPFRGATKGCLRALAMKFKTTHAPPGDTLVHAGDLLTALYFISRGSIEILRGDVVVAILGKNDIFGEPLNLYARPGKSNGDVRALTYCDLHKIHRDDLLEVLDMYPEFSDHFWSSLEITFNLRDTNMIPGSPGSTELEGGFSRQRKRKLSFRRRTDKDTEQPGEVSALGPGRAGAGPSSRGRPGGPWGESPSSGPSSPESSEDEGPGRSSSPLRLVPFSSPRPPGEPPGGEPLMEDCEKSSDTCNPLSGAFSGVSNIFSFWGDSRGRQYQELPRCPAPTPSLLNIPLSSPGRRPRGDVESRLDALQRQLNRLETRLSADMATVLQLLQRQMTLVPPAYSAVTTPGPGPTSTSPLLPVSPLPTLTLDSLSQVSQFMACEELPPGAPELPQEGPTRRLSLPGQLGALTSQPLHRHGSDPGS
Kind of assay: hERG QPatch screening protocol (hERG current block). The assay is classed as cell-based. Conditions: HEK-293 cells stably transfected with hERG; tail current; room temperature. As for the experimental part: hERG QPatch Screening Protocol
Solutions and Compound Plates:
The bath solution contained (in mM): 140 NaCl, 5 KCl, 1 MgCl2, 2 CaCl2, 5 glucose, 20 HEPES, pH=7.4. The internal solution contained (in mM): 125 K-aspartate, 20 KCl, 10 EGTA, 5 MgATP, 1 MgCl2, 5 HEPES, pH=7.3.
Compound plates were prepared with an acoustic liquid handler (Echo® 550, Labcyte), using 384-well source plates and 96-well destination plates. Compounds were delivered to the destination plates as 300 nL spots in half-log increments (1, 3, 10 and 30 mM), dissolved in dimethyl sulfoxide. Plates were solvated with bath solution (300 μL) to final concentrations (1, 3, 10 and 30 μM; 0.1% dimethyl sulfoxide) and added to the QPatch workstation.
Cells and Cell Preparation:
Human embryonic kidney (HEK-293) cells, stably transfected with the hERG channel, were obtained from Dr. C. W. January (Wisconsin Alumni Research Foundation). Cells were initially maintained at 37° C. (5% CO2 atmosphere) in MEM supplemented media. Cells were cryo-preserved in 10% dimethyl sulfoxide, 90% fetal bovine serum at 10 M cells/mL. For electrophysiological studies, cells were thawed, resuspended in media at 1.0-1.5 M cells/mL and placed on the QPatch workstation.
QPatch Electrophysiology Workstation and Experimental Protocol:
Currents were recorded using QPatch HT (Sophion), an automated planar patch-clamp system. The QPatch uses forty-eight amplifiers and a 48-chamber QPlate positioned directly on top of the headstage. To obtain high resistant seals, cells are added to each chamber and allowed to settle for 10 seconds. Negative pressure is then applied to promote cell delivery to the patch chip openings on the chamber bottom. After formation of GΩ seals, negative pressure ramps are applied to obtain intracellular access. Access resistance was initially optimized by additional pressure ramps to assure the intracellular access was adequate for voltage clamp experiments (targeted access resistance <10 MΩ). Whole-cell compensation and series resistance compensation were used at 60% (both predicted and corrected). Experiments using QPatch were conducted at room temperature.
A single application of each concentration was applied to cells. During a five-minute wash-in period, a four-second depolarizing pulse to +20 mV, followed by a five-second repolarizing pulse to −50 mV was applied once every 15 seconds from a holding potential of −80 mV. Cells were exposed to four ascending concentrations of drug in half-log intervals.
Evaluation of hERG Current Block:
hERG tail current was measured as the difference in amplitude between a […] and the end of a five-second test pulse to −50 mV, preceded by a four-second pulse to +20 mV. The hERG IC50 values for compounds were determined from tail current analysis. The IC50 was calculated with a logistic fitting routine using the following equation: y=[(A1−A2)/(1+(x/IC50))^p]A2, where A1=initial×value, A2=final×value and p=power.
On the technique in general: Block of hERG is tested as a sign of cardiac risk.

This passage reports IC50 results from US9682985B2, “(Indazol-4-yl) hexahydropyrrolopyrrolones and methods of use” (AbbVie Inc., priority 2015, dated 2017).

Broadly, the IC50 is the midpoint of a concentration-inhibition curve.

Some results are limits rather than exact numbers.

T1 sequence (Q15858 whole entry): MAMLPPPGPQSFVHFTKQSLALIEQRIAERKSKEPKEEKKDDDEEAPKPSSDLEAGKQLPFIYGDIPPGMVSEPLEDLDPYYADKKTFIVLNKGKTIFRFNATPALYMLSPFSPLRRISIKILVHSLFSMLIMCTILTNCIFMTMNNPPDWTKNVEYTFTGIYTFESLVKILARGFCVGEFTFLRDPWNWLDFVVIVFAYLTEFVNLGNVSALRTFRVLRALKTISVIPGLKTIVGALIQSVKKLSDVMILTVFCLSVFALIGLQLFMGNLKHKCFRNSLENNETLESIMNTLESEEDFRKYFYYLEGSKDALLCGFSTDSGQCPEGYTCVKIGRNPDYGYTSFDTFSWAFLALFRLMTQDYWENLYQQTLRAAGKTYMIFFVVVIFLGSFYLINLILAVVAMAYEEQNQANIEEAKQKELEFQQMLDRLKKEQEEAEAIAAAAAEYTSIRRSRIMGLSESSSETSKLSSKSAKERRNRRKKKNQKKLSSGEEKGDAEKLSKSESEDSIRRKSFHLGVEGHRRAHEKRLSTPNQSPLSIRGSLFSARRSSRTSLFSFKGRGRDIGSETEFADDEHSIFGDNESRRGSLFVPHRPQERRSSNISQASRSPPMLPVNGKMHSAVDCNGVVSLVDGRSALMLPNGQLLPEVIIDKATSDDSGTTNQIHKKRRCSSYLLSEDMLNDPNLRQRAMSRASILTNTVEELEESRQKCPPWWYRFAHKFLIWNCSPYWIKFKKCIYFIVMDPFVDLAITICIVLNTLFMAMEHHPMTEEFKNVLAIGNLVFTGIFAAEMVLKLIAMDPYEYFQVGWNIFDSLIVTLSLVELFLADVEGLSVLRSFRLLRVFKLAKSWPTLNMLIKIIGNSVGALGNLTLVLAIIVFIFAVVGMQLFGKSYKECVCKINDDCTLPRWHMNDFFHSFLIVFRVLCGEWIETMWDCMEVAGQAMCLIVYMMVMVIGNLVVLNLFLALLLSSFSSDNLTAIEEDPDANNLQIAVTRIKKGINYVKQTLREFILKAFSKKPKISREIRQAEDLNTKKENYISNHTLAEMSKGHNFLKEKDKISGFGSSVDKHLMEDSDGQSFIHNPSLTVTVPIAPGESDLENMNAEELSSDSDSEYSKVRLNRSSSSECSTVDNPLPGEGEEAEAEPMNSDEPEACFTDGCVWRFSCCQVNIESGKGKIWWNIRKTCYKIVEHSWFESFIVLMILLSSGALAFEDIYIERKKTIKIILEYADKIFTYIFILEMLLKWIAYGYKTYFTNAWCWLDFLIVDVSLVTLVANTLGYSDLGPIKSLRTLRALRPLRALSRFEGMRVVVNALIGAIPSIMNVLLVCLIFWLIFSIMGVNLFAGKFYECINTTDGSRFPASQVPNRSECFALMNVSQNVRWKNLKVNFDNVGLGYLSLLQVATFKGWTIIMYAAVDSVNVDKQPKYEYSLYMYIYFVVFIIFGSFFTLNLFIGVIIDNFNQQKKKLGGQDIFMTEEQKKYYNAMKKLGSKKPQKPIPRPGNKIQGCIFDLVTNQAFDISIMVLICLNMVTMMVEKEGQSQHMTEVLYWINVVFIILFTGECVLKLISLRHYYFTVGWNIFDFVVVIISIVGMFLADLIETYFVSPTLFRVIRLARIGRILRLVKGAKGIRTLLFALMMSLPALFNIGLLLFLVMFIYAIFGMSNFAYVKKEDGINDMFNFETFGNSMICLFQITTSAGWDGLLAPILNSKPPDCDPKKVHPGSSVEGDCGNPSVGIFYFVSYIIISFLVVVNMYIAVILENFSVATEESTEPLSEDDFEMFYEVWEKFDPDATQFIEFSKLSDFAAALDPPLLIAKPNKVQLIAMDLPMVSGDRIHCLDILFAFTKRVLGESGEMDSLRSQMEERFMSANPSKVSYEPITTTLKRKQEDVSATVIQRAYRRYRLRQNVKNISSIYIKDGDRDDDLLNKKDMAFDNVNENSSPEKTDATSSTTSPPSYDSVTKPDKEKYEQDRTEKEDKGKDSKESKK

Consider `O=C(Cc1coc2ccccc12)N1CC2CN(c3cccc4c3cnn4-c3ccccc3F)C(=O)C2C1` [Example 25, (3aR,6aS)-5-(1-benzofuran-3-ylacetyl)-2-[1-(2-fluorophenyl)-1H-indazol-4-yl]hexahydropyrrolo[3,4-c]pyrrol-1(2H)-one], for which the results for the concentration for half-maximal inhibition (IC50) on recombinant human Nav1.7 and against hERG channel (Kv11.1) were 1.29 µM and 4.31 µM, respectively.
The like results for `CC(=O)N1C[C@H]2CN(c3cccc4c3cnn4-c3ccccc3F)C(=O)[C@H]2C1` [Example 46, (3aS,6aR)-5-acetyl-2-[1-(2-fluorophenyl)-1H-indazol-4-yl]hexahydropyrrolo[3,4-c]pyrrol-1(2H)-one] were, in that order, 3.56 µM and above 30 µM.
Turning to `CC(=O)N1C[C@@H]2CN(c3cccc4c3cnn4-c3ccccc3F)C(=O)[C@H]2C1` (relative stereo) [Example 17, rel-(3aR,6aR)-5-acetyl-2-[1-(2-fluorophenyl)-1H-indazol-4-yl]hexahydropyrrolo[3,4-c]pyrrol-1(2H)-one], on recombinant human Nav1.7, the IC50 was 8.93 µM.
Same read-out and setting: the value for `CN(C)C(=O)N1C[C@H]2CN(c3cccc4c3cnn4-c3ccccc3F)C(=O)[C@H]2C1` (relative stereo) [Example 15, rel-(3aR,6aR)-5-[1-(2-fluorophenyl)-1H-indazol-4-yl]-N,N-dimethyl-4-oxohexahydropyrrolo[3,4-c]pyrrole-2(1H)-carboxamide] was 7.57 µM.
Regarding `O=C(C1CC(Cl)C1)N1C[C@H]2CN(c3cccc4c3cnn4-c3ccccc3F)C(=O)[C@H]2C1` (stereo partly drawn) [Example 43, (3aS,6aR)-5-[(3-chlorocyclobutyl)carbonyl]-2-[1-(2-fluorophenyl)-1H-indazol-4-yl]hexahydropyrrolo[3,4-c]pyrrol-1(2H)-one], the figures for the IC50 at recombinant human Nav1.7 and against hERG channel (Kv11.1) were 3.03 µM and above 30 µM, respectively.
Take `O=C1[C@@H]2CN(S(=O)(=O)C3CC3)C[C@@H]2CN1c1cccc2c1cnn2-c1ccccc1F` [Example 28, (3aS,6aS)-5-(cyclopropylsulfonyl)-2-[1-(2-fluorophenyl)-1H-indazol-4-yl]hexahydropyrrolo[3,4-c]pyrrol-1(2H)-one]: the IC50 on recombinant human Nav1.7 is 3.82 µM.
In the case of `O=C1[C@@H]2CN(S(=O)(=O)c3ccccc3)C[C@@H]2CN1c1cccc2c1cnn2-c1ccccc1F` [Example 29, (3aS,6aS)-2-[1-(2-fluorophenyl)-1H-indazol-4-yl]-5-(phenylsulfonyl)hexahydropyrrolo[3,4-c]pyrrol-1(2H)-one], the IC50 is 2.88 µM on recombinant human Nav1.7 and 26.5 µM on hERG channel (Kv11.1).
`CC(C)C(=O)N1C[C@@H]2CN(c3cccc4c3cnn4-c3ccccc3F)C(=O)[C@@H]2C1` [Example 20, (3aR,6aS)-2-[1-(2-fluorophenyl)-1H-indazol-4-yl]-5-isobutyrylhexahydropyrrolo[3,4-c]pyrrol-1(2H)-one]: the IC50 on recombinant human Nav1.7 was determined as 4.48 µM.
On the same count and under the same terms, with `O=C1[C@H]2[C@H](CCN2C(=O)C2(O)CC2)CN1c1cccc2c1cnn2-c1ccccc1F` [Example 48, (3aR,6aR)-5-[1-(2-fluorophenyl)-1H-indazol-4-yl]-1-[(1-hydroxycyclopropyl)carbonyl]hexahydropyrrolo[3,4-b]pyrrol-6(1H)-one] the figure was 0.593 µM; with `CC(C)(O)C(=O)N1CC[C@@H]2CN(c3cccc4c3cnn4-c3ccccc3F)C(=O)[C@@H]21` [Example 47, (3aR,6aR)-5-[1-(2-fluorophenyl)-1H-indazol-4-yl]-1-(2-hydroxy-2-methylpropanoyl)hexahydropyrrolo[3,4-b]pyrrol-6(1H)-one], 3.06 µM.
Same read-out and setting: the value for `Cc1noc(C)c1CC(=O)N1C[C@@H]2CN(c3cccc4c3cnn4-c3ccccc3F)C(=O)[C@@H]2C1` [Example 33, (3aR,6aS)-5-[(3,5-dimethyl-1,2-oxazol-4-yl)acetyl]-2-[1-(2-fluorophenyl)-1H-indazol-4-yl]hexahydropyrrolo[3,4-c]pyrrol-1(2H)-one] was 13.3 µM.
Same read-out and setting: the value for `C[C@@H](O)CC(=O)N1C[C@H]2CN(c3cccc4c3cnn4-c3ccccc3F)C(=O)[C@H]2C1` [Example 38, (3aS,6aR)-2-[1-(2-fluorophenyl)-1H-indazol-4-yl]-5-[(3R)-3-hydroxybutanoyl]hexahydropyrrolo[3,4-c]pyrrol-1(2H)-one] was 6.4 µM.
For the compound `C[C@@H](O)CC(=O)N1C[C@@H]2CN(c3cccc4c3cnn4-c3ccccc3F)C(=O)[C@@H]2C1` [Example 39, (3aR,6aS)-2-[1-(2-fluorophenyl)-1H-indazol-4-yl]-5-[(3R)-3-hydroxybutanoyl]hexahydropyrrolo[3,4-c]pyrrol-1(2H)-one], the IC50 on recombinant human Nav1.7 was found to be 14.6 µM.
Turning to `O=C(NCc1cnco1)N1C[C@H]2CN(c3cccc4c3cnn4-c3ccccc3F)C(=O)[C@H]2C1` (relative stereo) [Example 13, rel-(3aR,6aR)-5-[1-(2-fluorophenyl)-1H-indazol-4-yl]-N-(1,3-oxazol-5-ylmethyl)-4-oxohexahydropyrrolo[3,4-c]pyrrole-2(1H)-carboxamide], the 50% inhibitory concentration (IC50) on recombinant human Nav1.7 is 11.1 µM.
With `O=C1[C@@H]2CN(S(=O)(=O)CCC(F)(F)F)C[C@@H]2CN1c1cccc2c1cnn2-c1ccccc1F` [Example 26, (3aS,6aS)-2-[1-(2-fluorophenyl)-1H-indazol-4-yl]-5-[(3,3,3-trifluoropropyl)sulfonyl]hexahydropyrrolo[3,4-c]pyrrol-1(2H)-one], the IC50 at recombinant human Nav1.7 was 2.94 µM; at hERG channel (Kv11.1), above 30 µM.
Regarding `CCS(=O)(=O)N1C[C@@H]2CN(c3cccc4c3cnn4-c3ccccc3F)C(=O)[C@@H]2C1` [Example 23, (3aS,6aS)-5-(ethylsulfonyl)-2-[1-(2-fluorophenyl)-1H-indazol-4-yl]hexahydropyrrolo[3,4-c]pyrrol-1(2H)-one], the figures for the IC50 on recombinant human Nav1.7 and against hERG channel (Kv11.1) were 2.93 µM and above 30 µM, respectively.
Consider `CC(C)(C)OC(=O)N1CCC(S(=O)(=O)N2CC3CN(c4cccc5c4cnn5-c4ccccc4F)C(=O)C3C2)CC1` [Example 30, tert-butyl 4-{[(3aS,6aS)-5-[1-(2-fluorophenyl)-1H-indazol-4-yl]-4-oxohexahydropyrrolo[3,4c]-pyrrol-2(1H)-yl]sulfonyl}piperidine-1-carboxylate], for which the 50% inhibitory concentration (IC50) at recombinant human Nav1.7 was determined as 3.62 µM.
Same read-out and setting: the value for `CC(C)(O)C(=O)N1C[C@H]2CN(c3cccc4c3cnn4-c3ccccc3F)C(=O)[C@H]2C1` [Example 41, (3aS,6aR)-2-[1-(2-fluorophenyl)-1H-indazol-4-yl]-5-(2-hydroxy-2-methylpropanoyl)hexahydropyrrolo[3,4-c]pyrrol-1(2H)-one] was 13.1 µM; that for `C[C@H](O)CC(=O)N1C[C@@H]2CN(c3cccc4c3cnn4-c3ccccc3F)C(=O)[C@@H]2C1` [Example 36, (3aR,6aS)-2-[1-(2-fluorophenyl)-1H-indazol-4-yl]-5-[(3S)-3-hydroxybutanoyl]hexahydropyrrolo[3,4-c]pyrrol-1(2H)-one] was 11.5 µM.
With `O=C1[C@H]2CN(C(=O)C3(O)CC3)C[C@H]2CN1c1cccc2c1cnn2-c1ccccc1F` [Example 42, (3aS,6aR)-2-[1-(2-fluorophenyl)-1H-indazol-4-yl]-5-[(1-hydroxycyclopropyl)carbonyl]hexahydropyrrolo[3,4-c]pyrrol-1(2H)-one], at recombinant human Nav1.7, the IC50 came out at 8.89 µM.
On to `O=C(C1CC1(F)F)N1C[C@@H]2CN(c3cccc4c3cnn4-c3ccccc3F)C(=O)[C@@H]2C1` (stereo partly drawn) [Example 40, (3aR,6aS)-5-[(2,2-difluorocyclopropyl)carbonyl]-2-[1-(2-fluorophenyl)-1H-indazol-4-yl]hexahydropyrrolo[3,4-c]pyrrol-1(2H)-one], for which the 50% inhibitory concentration (IC50) on recombinant human Nav1.7 is 10.4 µM.
Still for that read-out and setting: with `O=C1[C@@H]2CN(S(=O)(=O)c3cccnc3)C[C@@H]2CN1c1cccc2c1cnn2-c1ccccc1F` [Example 27, (3aS,6aS)-2-[1-(2-fluorophenyl)-1H-indazol-4-yl]-5-(pyridin-3-ylsulfonyl)hexahydropyrrolo[3,4-c]pyrrol-1(2H)-one] the figure was 3.62 µM; with `CS(=O)(=O)N1C[C@@H]2CN(c3cccc4c3cnn4-c3ccccc3F)C(=O)[C@@H]2C1` [Example 22, (3aS,6aS)-2-[1-(2-fluorophenyl)-1H-indazol-4-yl]-5-(methylsulfonyl)hexahydropyrrolo[3,4-c]pyrrol-1(2H)-one], 6.72 µM.
